This experiment addresses T1, Human TRPV3 (Homo sapiens, UniProt Q8NET8).
T1 construct: expressed in transfected cells; host or cells: CHO cells (selected with G-418)
T1 sequence (Q8NET8 1-790): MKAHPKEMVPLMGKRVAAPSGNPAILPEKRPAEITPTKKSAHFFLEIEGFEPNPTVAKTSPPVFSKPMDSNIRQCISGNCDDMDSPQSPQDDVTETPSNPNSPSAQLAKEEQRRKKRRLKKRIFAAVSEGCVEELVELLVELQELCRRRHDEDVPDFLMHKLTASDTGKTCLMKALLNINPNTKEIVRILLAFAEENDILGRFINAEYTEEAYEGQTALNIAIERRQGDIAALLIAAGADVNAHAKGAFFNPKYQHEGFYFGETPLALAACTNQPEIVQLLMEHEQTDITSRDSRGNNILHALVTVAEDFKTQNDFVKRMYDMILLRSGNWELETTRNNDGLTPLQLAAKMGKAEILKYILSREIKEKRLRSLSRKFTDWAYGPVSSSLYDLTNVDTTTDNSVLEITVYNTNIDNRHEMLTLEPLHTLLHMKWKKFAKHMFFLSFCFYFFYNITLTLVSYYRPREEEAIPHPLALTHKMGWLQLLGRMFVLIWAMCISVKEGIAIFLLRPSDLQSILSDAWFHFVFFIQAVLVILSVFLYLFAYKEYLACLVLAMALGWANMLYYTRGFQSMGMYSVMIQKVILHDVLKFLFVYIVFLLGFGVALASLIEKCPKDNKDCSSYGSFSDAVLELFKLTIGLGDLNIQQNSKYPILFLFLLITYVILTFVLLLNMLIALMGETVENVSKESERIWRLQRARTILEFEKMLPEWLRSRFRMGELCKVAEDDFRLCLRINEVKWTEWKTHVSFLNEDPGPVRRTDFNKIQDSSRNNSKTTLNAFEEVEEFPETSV
Description: Screening for TRPV3 antagonist using the 45Calcium uptake assay (inhibition of 2-APB induced cellular uptake of radioactive calcium). It is filed as cell-based. The settings on record: Human TRPV3 expressing CHO cells, 2-APB 500 μM; for inhibition at 1 µM / inhibition at 10 µM: CHO; for inhibition at 1 µM: read-out: Percentage inhibition at 1.0 μM; for inhibition at 10 µM: read-out: Percentage inhibition at 10.0 μM. The text has this:
The illustrative examples of the present invention are screened for TRPV3 activity according to a modified procedure described in Tóth, A., Kedei, N., Wang, Y. and Blumberg, P. M. Life Sciences (2003), 73, 487-498. The screening of the compounds can be carried out by other methods and procedures known to a person skilled in the art. Such screening methods may be found in (a) Hu, H.-Z. et al. J. Biol. Chem. (2004), 279, 35741-35747; (b) Smith, G. D. et al. Nature (2002), 418, 186-190; (c) Peier, A. M. et al. Science (2002), 296, 2046-2049.
Screening for TRPV3 Antagonist Using the ^45Calcium Uptake Assay:
The inhibition of TRPV3 receptor activation was followed as inhibition of 2-aminoethxydiphenylborate (2-APB) induced cellular uptake of radioactive calcium. Test compounds were dissolved in dimethyl sulfoxide (DMSO) to prepare 20 mM stock solution and then diluted using plain medium with DMEM/F-12 containing 1.8 mM CaCl2 to get desired concentration. Final concentration of DMSO in the reaction was 0.5% (v/v). Human TRPV3 expressing CHO cells were grown in DMEM/F-12 medium with 10% FBS, 1% penicillin-streptomycin solution, 400 μg/ml of G-418. Cells were seeded 24 h prior to the assay in 96 well plates so as to get ˜50,000 cells per well on the day of experiment. Cells were treated with test compounds for 10 minutes followed by addition of 2-APB at a final concentration of 500 μM and 5 μCi/ml ^45Ca^+2 for 4 minutes. Cells were washed and lysed using buffer containing 1% Triton X-100, 0.1% deoxycholate and 0.1% SDS. Radioactivity in the lysate was measured in Packardt Top count after addition of liquid scintillant. Concentration response curves were plotted as a % of maximal response obtained in the absence of test antagonist. IC50 value was calculated from concentration response curve by nonlinear regression analysis using GraphPad PRISM software.
Percentage inhibition at concentrations of 1.0 μM and 10.0 μM are given in the table along with IC50 (nM) values for selected examples.

Where only a bound is given, the exact number is not on record here.

`COc1cccc(/C=C/c2nc3ccccn3c(=O)c2-c2ccc([N+](=O)[O-])cc2)c1OC1CCCC1` [Example 30, 2-{(E)-2-[(2-Cyclopentyloxy)-3-methoxyphenyl]vinyl}-3-(4-nitro)phenyl-4H-pyrido[1,2-a]pyrimidin-4-one]: where the note is “1.0 μM test compound”, the inhibition at 1 µM was determined as 52%. For the same molecule, for the setting “10.0 μM test compound”, the inhibition at 10 µM was determined as 76.4%.

In the case of `O=c1c(-c2ccc(C(F)(F)F)cc2)c(/C=C/c2cccc3c2OCO3)nc2ccccn12` [Example 4, 2-[(E)-2-(1,3-Benzodioxol-4-yl)vinyl]-3-[4-(trifluoromethyl)phenyl]-4H-pyrido[1,2-a]pyrimidin-4-one], the inhibition at 1 µM (1.0 μM test compound) was determined as 25.3%. Besides, the inhibition at 10 µM (10.0 μM test compound) was 74%.

Consider `CCCOc1c(/C=C/c2nc3ccccn3c(=O)c2-c2ccc(C(F)(F)F)cc2)cccc1OC` [Example 6], for which, under “1.0 μM test compound”, the inhibition at 1 µM was 71.5%. Also, where the note is “10.0 μM test compound”, the inhibition at 10 µM came out at 67.5%.

`COc1cccc(/C=C/c2nc3ccccn3c(=O)c2-c2ccc(NC(C)=O)cc2)c1OC1CCCC1` [Example 32, N-(4-{2-[(E)-2-(2-Cyclopentyloxy-3-methoxy)phenylvinyl]-4-Oxo-4H-pyrido[1,2-a]pyrimidin-3-yl}phenyl)acetamide]: the inhibition at 1 µM (1.0 μM test compound) is 34.2%. Also, the inhibition at 10 µM (10.0 μM test compound) is 89.6%.

Regarding `COc1cccc(/C=C/c2nc3ccccn3c(=O)c2-c2ccc3c(c2)OCO3)c1OC1CCCC1` [Example 37, 3-(1,3-Benzodioxol-5-yl)-2-[(E)-2-(2-cyclopentyloxy-3-methoxy)phenylvinyl]-4H-pyrido[1,2-a]pyrimidin-4-one], the inhibition at 1 µM (1.0 μM test compound) was determined as 70.1%. Besides, the inhibition at 10 µM (10.0 μM test compound) stood at 91.4%.

Take `COc1cccc(/C=C/c2nc3ccccn3c(=O)c2-c2ccc(C#N)cc2)c1OC1CCCC1` [Example 28, 4-{2-[(E)-2-(2-Cyclopentyloxy-3-methoxyphenyl)vinyl]-4-oxo-4H-pyrido[1,2-a]-pyrimidin-3-yl}benzonitrile]: the IC50 was below 500 nM. For the same molecule, the “Percentage inhibition at 1.0 μM” value (1.0 μM test compound) stood at 83.5%. For the same molecule, for the setting “10.0 μM test compound”, the “Percentage inhibition at 10.0 μM” value is 94.7%.

For the molecule `COc1cccc(/C=C/c2nc3ccccn3c(=O)c2-c2cccc(C(F)(F)F)c2)c1OC1CCCC1` [Example 22, 2-{(E)-2-[(2-Cyclopentyloxy-3-methoxy)phenyl]vinyl}-3-(3-trifluoromethyl)phenyl-4H-pyrido[1,2-a]pyrimidin-4-one], the inhibition at 1 µM (1.0 μM test compound) is 22.7%. Further, the inhibition at 10 µM (10.0 μM test compound) came out at 34.6%.

For `COc1cccc(/C=C/c2nc3ccccn3c(=O)c2-c2ccc(OC(F)(F)F)cc2)c1OCC1CC1` [Example 18], the IC50 was below 500 nM. The inhibition at 1 µM (1.0 μM test compound) was determined as 79.5%. Also, the inhibition at 10 µM (10.0 μM test compound) was 93.5%.

In the case of `CCCCOc1c(/C=C/c2nc3ccccn3c(=O)c2-c2ccc(C(F)(F)F)cc2)cccc1OC` [Example 8], the inhibition at 1 µM (1.0 μM test compound) was determined as 76.3%. The inhibition at 10 µM (10.0 μM test compound) is 89.7%.

With `COc1cccc(/C=C/c2nc3ccccn3c(=O)c2-c2ccc(C(F)(F)F)cc2)c1OC1CCCC1` [Example 23, 2-{(E)-2-[2-(Cyclopentyloxy)-3-methoxyphenyl]vinyl}-3-(4-trifluoromethyl)phenyl-4H-pyrido[1,2-a]pyrimidin-4-one], the IC50 fell in the range of 500 to 1000 nM. Further, the inhibition at 1 µM (1.0 μM test compound) was found to be 62.8%. In addition, the inhibition at 10 µM (10.0 μM test compound) came to 86.7%.

In the case of `CCCCCOc1c(/C=C/c2nc3ccccn3c(=O)c2-c2ccc(C(F)(F)F)cc2)cccc1OC` [Example 11], under “1.0 μM test compound”, the inhibition at 1 µM came out at 69%. In addition, under “10.0 μM test compound”, the inhibition at 10 µM was 86.5%.

Turning to `COc1cccc(/C=C/c2nc3ccccn3c(=O)c2-c2ccc(F)nc2)c1OC1CCCC1` [Example 36, 2-{(E)-2-[2-(Cyclopentyloxy-3-methoxy)phenyl]vinyl}-3-(6-fluoro)pyridin-3-yl-4H-pyrido[1,2-a]pyrimidin-4-one], the IC50 was 500 to 1000 nM. Also, the inhibition at 1 µM (1.0 μM test compound) came to 42.2%. For the same molecule, the inhibition at 10 µM (10.0 μM test compound) came to 82.4%.

What is called inhibition is how much of the control response was suppressed. Broadly, the IC50 is the midpoint of a concentration-inhibition curve.

Values taken from patent US8349846B2, “Fused pyrimidine derivatives as TRPV3 modulators” (Glenmark Pharmaceuticals, S.A., priority 2008, dated 2013).
